Test results reported in PubChem BioAssay AID248 (DTP/NCI, 2004).
“And” between values parts separate entries of the source, which are not always exact repeats. Equal values may be shown once. Toxic doses and inconclusive results are not listed. No stated cut-off is given here; in the data, active means T/C of 150% or more; inactive means T/C below 125%.

System: L1210 leukemia ip in BDF1 mice, survival T/C
Test: NCI In Vivo Anticancer Drug Screen. Data for tumor model L1210 Leukemia (intraperitoneal) in B6D2F1 (BDF1) mice
Conditions: endpoint: mean survival time, higher = longer survival
Method in brief: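 Survival endpoint. Drug-treated group vs vehicle group, expressed as T divided by C. Tumor passaged by transplantation.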

[1] = dose: 100.0 mg/kg/injection, schedule: Q01DX009 (ip), vehicle: saline
[2] = dose: 100.0 mg/kg/injection, schedule: Q04DX003 (ip), vehicle: saline
[3] = dose: 200.0 mg/kg/injection, schedule: Q01DX009 (ip), vehicle: saline
[4] = dose: 200.0 mg/kg/injection, schedule: Q04DX003 (ip), vehicle: saline
[5] = dose: 400.0 mg/kg/injection, schedule: Q01DX009 (ip), vehicle: saline
[6] = dose: 400.0 mg/kg/injection, schedule: Q04DX003 (ip), vehicle: saline
[7] = dose: 100.0 mg/kg/injection, schedule: Q04DX003 (ip), vehicle: Klucel (hydroxypropylcellulose) (HPC)
[8] = dose: 200.0 mg/kg/injection, schedule: Q04DX003 (ip), vehicle: Klucel (hydroxypropylcellulose) (HPC)
[9] = dose: 400.0 mg/kg/injection, schedule: Q04DX003 (ip), vehicle: Klucel (hydroxypropylcellulose) (HPC)

Measured: T/C

CCCCCCC#CC(=O)OCCCC
inactive: dose: 100.0 mg/kg/injection, schedule: Q04DX002 (ip), vehicle: saline with Tween-80 93 % of control | dose: 200.0 mg/kg/injection, schedule: Q04DX002 (ip), vehicle: saline with Tween-80 93 % of control | dose: 400.0 mg/kg/injection, schedule: Q04DX002 (ip), vehicle: saline with Tween-80 90 % of control

COc1ccc(C(=O)N(N)C2CCCCC2)cc1
inactive: dose: 100.0 mg/kg/injection, schedule: Q04DX003 (ip), vehicle: saline with Tween-80 93 % of control | dose: 200.0 mg/kg/injection, schedule: Q04DX003 (ip), vehicle: saline with Tween-80 102 % of control

CCCCCCCC(=O)N1CCCN(C(=O)CCCCCCC)C1
inactive: dose: 30.0 mg/kg/injection, schedule: Q01DX001 (ip), vehicle: saline 94 % of control | dose: 100.0 mg/kg/injection, schedule: Q01DX001 (ip), vehicle: saline 100 % of control

NC(N)=NCCCC(=O)O
inactive: [1] 92 % of control | [2] 110 % of control | [3] 94 % of control | [4] 108 % of control | [5] 92 % of control | [6] 103 % of control

NC(=O)n1cccn1
inactive: dose: 25.0 mg/kg/injection, schedule: Q01DX Z (ip), vehicle: carboxymethylcellulose (CMC) 100 % of control | dose: 50.0 mg/kg/injection, schedule: Q01DX Z (ip), vehicle: carboxymethylcellulose (CMC) 102 % of control | dose: 100.0 mg/kg/injection, schedule: Q01DX Z (ip), vehicle: carboxymethylcellulose (CMC) 102 % of control | dose: 200.0 mg/kg/injection, schedule: Q01DX Z (ip), vehicle: carboxymethylcellulose (CMC) 100 % of control and 109 % of control | dose: 400.0 mg/kg/injection, schedule: Q01DX Z (ip), vehicle: carboxymethylcellulose (CMC) 102 % of control

CCCCCCCCCOC(=O)NC1c2ccccc2Oc2ccccc21
inactive: dose: 100.0 mg/kg/injection, schedule: Q01DX009 (ip), vehicle: acetone 93 % of control | [2] 98 % of control | [4] 98 % of control | [6] 88 % of control

ClCc1ccc(CCl)c2ccccc12
inactive: [7] 104 % of control | [8] 105 % of control | [9] 100 % of control

Cc1cc(C)c(S(=O)(=O)C(=O)/C=N/N)c(C)c1
inactive: dose: 100.0 mg/kg/injection, schedule: Q01DX001 (ip), vehicle: Klucel (hydroxypropylcellulose) (HPC) 96 % of control | [7] 98 % of control | dose: 200.0 mg/kg/injection, schedule: Q01DX001 (ip), vehicle: Klucel (hydroxypropylcellulose) (HPC) 100 % of control | dose: 200.0 mg/kg/injection, schedule: Q01DX009 (ip), vehicle: Klucel (hydroxypropylcellulose) (HPC) 91 % of control | [8] 98 % of control | dose: 400.0 mg/kg/injection, schedule: Q01DX001 (ip), vehicle: Klucel (hydroxypropylcellulose) (HPC) 94 % of control | dose: 400.0 mg/kg/injection, schedule: Q01DX009 (ip), vehicle: Klucel (hydroxypropylcellulose) (HPC) 93 % of control | [9] 96 % of control

O=C1NC(c2ccccc2)(c2ccccc2)C(=O)N1CC1CO1 (configuration not stated)
inactive: [1] 100 % of control | [2] 103 % of control | [3] 91 % of control | [4] 102 % of control | [5] 93 % of control | [6] 97 % of control

Cc1ccc(Nc2n[nH]c(=S)s2)c(C)c1
inactive: dose: 100.0 mg/kg/injection, schedule: Q04DX002 (ip), vehicle: gum acacia 96 % of control | dose: 200.0 mg/kg/injection, schedule: Q04DX002 (ip), vehicle: gum acacia 96 % of control | dose: 400.0 mg/kg/injection, schedule: Q04DX002 (ip), vehicle: gum acacia 111 % of control
